From patent EP0277849A1, “Incorporation of one or more lipophilic, active principles into lipoproteins, lipoproteins obtained and pharmaceutical compositions containing them” (IRE-CELLTARG S.A., priority 1987, dated 1988)
Where two headings read alike, the source gives them in different places.

Assays:
[1] = Incorporation of cytotoxic agent into LDL with submicellar NaDOC; type: physicochemical
Experimental: Les LDL isolées sur sépharose CL-4B sont dialysées pendant 24 heures à 4° C contre un tampon C.
L'agent thérapeutique est solubilisé dans un solvant organique à raison de 1 mg par ml. 100 µL de cette solution sont évaporés sous Argon dans un tube à essai. On ajoute au résidu sec, 2 ml de la solution de LDL et du NaDOC de façon à atteindre une concentration finale de 1 à 5 mM selon l'agent thérapeutique considéré. […]
Au terme de l'incubation, l'échantillon est filtré sur un filtre Millipore 0,45 µm. Le NaDOC est ensuite éliminé par chromatographie sur gel P6 (Biorard®) préalablement équilibré avec un tampon C.
La concentration en ApoB et en agent thérapeutique est déterminée sur chaque fraction.Les fractions correspondant aux LDL sont mises en commun et dialysées contre un tampon τrisHCl 10 mM NaCI 0,15 M EDTA 0,3 mM pH 7,4 pendant 24 heures à 4°C.
L'ensemble du procédé décrit en IV-1 a été appliqué à un dérivé VINCA ALCALOIDE liposoluble : le "C91 base": (4-désacétyl-vinblastine C-3N-dodécyl-carboxamide). La concentration en NaDOC utilisée lors de l'incubation a été ajustée à 2 mM final.
Si on précipite sélectivement les LDL, plus de 99 % du C91 base se retrouve dans le culot. On confirme ainsi que l'agent thérapeutique est bien associé aux LDL. On appellera cette préparation : LDL-C91. […]

Candida tropicalis = assay: Intracellular infection model: J77468 macrophages infected with Candida tropicalis; type: cell-based; details: 2 % de sérum de veau foetal
Experimental: (§1) La lignée continue de macrophages J77468 d'origine murine provient d'un clonage de la souche J774 ATCC, et est cultivée en milieu RPMI 1640 additionné de glutamine 2 mM, 10% de sérum de veau foetal (décomplémenté 60 min. à 56°) et de 10 mM Hepes (pH 7.2). Une suspension de 5 10^6 cellules/ml sont infectées avec une culture de Candida tropicalis (5 10^5 levures/ml) provenant d'une culture de nuit dans de la casitone. Le milieu d'infection utilisé est du RPMI contenant 2 % de sérum de veau nouveau-né et 10 mM Hepes (pH 7.2).
(§2) Après 3 h d'incubation à 37° dans un mélange d'air 10 % C02, la phagocytose des levures est complète. La suspension cellulaire macrophages-Candida est centrifugée, lavée abondamment et répartie à raison de 10^5 macrophages infectés/alvéole dans des boîtes à 24 alvéoles contenant une lamelle de verre (diamètre 14 mm). Après 3 h de phagocytose (To), sur 100 macrophages, 32 contiennent de 1 à 6 Candida/macrophage, l'infection moyenne étant de 2 Candida/macrophage.
(§3) Toutes les levures ont été phagocytées sauf rares exceptions (estimation au microscope optique après coloration au May-Grünwald Giemsa). Douze concentrations différentes des drogues de référence et des drogues encapsulées dans les LDL sont distribuées dans les boîtes contenant les macrophages infectés.
(§4) L'évaluation de l'efficacité d'une drogue se fait à chaque concentration. Testées après 18 h d'incubation (37°, dans un mélange air-10 % C02), les levures se multiplient d'abord au sein des cellules hôtes, puis dans le milieu extracellulaire. Le taux de macrophages infectés est alors de 75 % chez les témoins. Une cellule peut contenir de 1 à plus de 20 Candida/cellule, la majorité contient de 2 à 6 levures/cellule. Le milieu de culture contient 10^8 Candida extracellulaires/ml (comptage dans une cellule de Burker).
L'activité d'une drogue encapsulée ou non dans les LDL ou Ac-LDL par rapport à un antifongique de référence, le kétoconazole (K), est déterminé par la concentration micromolaire en drogue réduisant de 50 % le nombre de macrophages infectés par les Candida (=C150). Signalons que parallèlement à la réduction au cours du traitement, du taux de cellules infectées, le nombre de Candida par macrophage infecté diminue fortement (de 1 à 3 levures/cellule).
Le milieu de culture est RPMI + glutamine 2 mM + Hepes 10 mM + 2 % de sérum de veau foetal.

C. tropicalis = assay: Extracellular infection in the infected-macrophage model; type: cell-based; details: Candida tropicalis, read-out: CIext50^(a)
Experimental: as §1, §2, §3, §4
L'action des AF encapsulés sur une infection extracellulaire peut être évaluée de deux manières : d'une part en déterminant le nombre de Candida extracellulaires dans un modèle d'infection intracellulaire (voir VIII § 1.1.), d'autre part en mesurant la concentration minimale inhibitrice (CMI) de ces composés par la méthode de dilutions successives dans des boîtes à multipuits (milieu RPMI).

macrophages J77468 = assay: Toxicity for J77468 macrophages (MTT reduction); type: cell-based, murine; details: for % de viabilité cellulaire*: 18 h, MTT
Experimental: as §1
La viabilité des macrophages J77468 cultivés dans du milieu contenant l'agent antifongique encapsulé ou non dans les LDL figure au Tableau 5. K et K01 sont toxiques aux concentrations nécessaires pour réduire de 50 % l'infection intracellulaire (C1250) contrairement au LDL-K01 pour lequel aucune toxicité n'a pu être détectée.

[2] = Incorporation of antifungal agent into LDL by NaDoc dissociation-reconstitution; type: physicochemical; details: 1,6 mg LDL, 482 µg of agent, dialysis
Experimental: On ajoute à 1,6 mg de LDL préalablement dialysées contre le tampon C, 10 mg de NaDoc solide et on laisse réagir 30 minutes à température ambiante. On ajoute à la préparation 2,8 ml d'une solution NaDoc 20 mM, Na2COs 50 mM, NaCi 50 mM, pH 10 contenant 482 µg de CT4000A ou 482 µg de CT040013. Les échantillons sont dialysés à 4° C contre trois fois 1 litre de tampon B.
Le pourcentage de récupération en LDL, en CT040013 et en NaDoc est déterminé au terme du processus de reconstitution (figure 13).
Il est également possible de rapporter la masse de substance incorporée par mole de LDL. Les résultats obtenus pour le CT04000A et la CT040013 sont respectivement de 0,4 et de 208 moles incorporés par mole de LDL.

IC50 (Candida tropicalis; Candida tropicalis, Macrophage, micromolar concentration reducing infected macrophages by 50 %, 18 h, read-out: CI50 (the source's name)) [µM] | IC50 (C. tropicalis; addition de 2 % Pl.H. (plasma humain)) [µM] | IC50 (C. tropicalis; addition de 2 % SVF (sérum de veau foetal)) [µM] | moles incorporés par mole de LDL [2] | Molecule | nombre de molécules de drogue incorporées par molécule de LDL ([1]; 2 mM en NaDOC, temps d'incubation de 60 heures (3 heures à 25° C + 57 heures à 4°C)) | part retrouvée dans le culot après précipitation sélective des LDL ([1]; NaDOC 2 mM) [%] | CI50 K/AF (Candida tropicalis) | toxicité aux concentrations nécessaires pour réduire de 50 % l'infection intracellulaire (macrophages J77468) | % de viabilité cellulaire* (macrophages J77468; Concentration 0,78 µM) | % de viabilité cellulaire* (macrophages J77468; Concentration 1,56 µM) | % de viabilité cellulaire* (macrophages J77468; Concentration 3,13 µM) | % de viabilité cellulaire* (macrophages J77468; Concentration 6,25 µM) | % de viabilité cellulaire* (macrophages J77468; Concentration 12,50 µM) | % de viabilité cellulaire* (macrophages J77468; Concentration 25,00 µM) | % de viabilité cellulaire* (macrophages J77468; Concentration 50,00 µM) | % de viabilité cellulaire* (macrophages J77468; Concentration 100,00 µM, versus untreated control)
– | – | – | – | 4-désacétyl-vinblastine C-3N-dodécyl-carboxamide [C91 base] | 70 | > 99 | – | – | – | – | – | – | – | – | – | –
52.3 | 0.1 | 0.1 | 0,4 moles incorporés par mole de LDL | CC(=O)N1CCN(c2ccc(OC[C@H]3CO[C@](Cn4ccnc4)(c4ccc(Cl)cc4Cl)O3)cc2)CC1 [K, reference compound] | – | – | 1 | toxiques | 85,16% | 86,67% | 64,56% | 50,52% | 16,40% | 3,16% | 3,50% | 1,75%
